Data on six compounds can be found in patent publication US20120191039A1, “CARRIER LINKED PRAMIPEXOLE PRODRUGS” (ASCENDIS PHARMA A/S, priority 2009, published 2012).

The structures appear in SMILES notation. Read-outs that look alike come from different tables or passages of the source.

Series [1] can be described thus: Release kinetics in vitro: hydrolysis in buffer at pH 7.4 and 37° C. It counts as physicochemical. The note with it: sodium phosphate buffer; half time of release, 60 mM sodium phosphate, 3 mM EDTA, 0.01% Tween20, pH 7.4, 37° C.; read-out: t1/2 buffer A (pH 7.4) (converted). As to the method: In vitro release sample was vortexed and centrifuged. An aliquot was taken from the supernatant, diluted with eluent (20 mM phosphate buffer pH 7.4, 150 mM NaCl) and assayed for pramipexole content by SEC as described above.
Release of drug molecule was effected by hydrolysis in buffer at pH 7.4 and 37° C.
9a, 9b, 9c, 9d, 9e, 11b, 20, 21, 22b, 23, 24b, 33, and 35 respectively, were dissolved in buffer (60 mM sodium phosphate, 3 mM EDTA, 0.01% Tween20, pH 7.4), solution was filtered through a 0.2 μm filter and incubated at 37° C. Samples were taken at time intervals and analyzed by RP-HPLC at 263 nm and 280 nm and ESI-MS. UV-signals correlating to linker conjugate molecules were integrated and plotted against incubation time. Curve-fitting software was applied to estimate the corresponding half time of release
16a, 16b, 26, 30, and 31 respectively, were suspended in buffer (60 mM sodium phosphate, 3 mM EDTA, 0.01% Tween20, pH 7.4) and incubated at 37° C. At time intervals samples were vortexed and centrifuged. Aliquots (10-50 μL) were taken from the supernatant solution, and analyzed by measurement of the absorption of released drug at 263 nm. Calculated amounts of released drug were plotted against incubation time. Alternatively, amount of released pramipexole was determined by size exclusion chromatography as described in “Materials and Methods”.
Curve-fitting software was applied to estimate the corresponding half time of release.

The conditions of series [2]: cited from earlier work.

For `CCCN[C@H]1CCc2nc(NC(=O)CCC(=O)NCCSC3CC(=O)N(CCC(=O)NCCOCCOCCOCCOCCOCCOCCC(=O)NCC(N)=O)C3=O)sc2C1` (some centres unmarked) [Compound 9a], the half-life in series [1] was 1730 min.

For the compound `CCCN[C@H]1CCc2nc(N)sc2C1` [Pramipexole], in series [2] (healthy subjects), the elimination half life is 8 h. Further, in series [2] (in vivo), the excretion entry is “mainly renal”, the metabolism result is given as “negligible metabolism”, the protein bound result is given as “Fifteen” and the volume of distribution was 7 L/kg. In addition, the absorption entry in series [2] (oral administration) was “rapidly and completely absorbed”. In addition, the “time to maximum plasma concentration” value in series [2] (oral, empty stomach) is 1 to 2 h. The “time to maximum plasma concentration” value in series [2] (oral, with food) was 3 to 4 h. Further, the Oral bioavailability result in series [2] (oral) is on record as “over 90%”.

For `CCCN[C@H]1CCc2nc(NC(=O)CNCC(=O)NCCCCCCSC3CC(=O)N(CCC(=O)NCCOCCOCCOCCOCCOCCOCCC(=O)NCC(N)=O)C3=O)sc2C1` (some centres unmarked) [Compound 9d], the half-life in series [1] is 1580 min.

Take `CCCN[C@H]1CCc2nc(NC(=O)CNC(=O)NCCCCCCSC3CC(=O)N(CCC(=O)NCCOCCOCCOCCOCCOCCOCCC(=O)NCC(N)=O)C3=O)sc2C1` (some centres unmarked) [Compound 9e]: the half-life in series [1] is 6190 min.

With `CCCN[C@H]1CCc2nc(NC(=O)COCC(=O)NCCCCCCSC3CC(=O)N(CCC(=O)NCCOCCOCCOCCOCCOCCOCCC(=O)NCC(N)=O)C3=O)sc2C1` (some centres unmarked) [Compound 9c], in series [1], the half-life is 1870 min.

Take `CCCN[C@H]1CCc2nc(NC(=O)CCC(=O)NCCCCCCSC3CC(=O)N(CCC(=O)NCCOCCOCCOCCOCCOCCOCCC(=O)NCC(N)=O)C3=O)sc2C1` (some centres unmarked) [Compound 9b]: the half-life in series [1] was 5330 min.
